Consider 33 compounds from the METLIN SMRT retention time set (Domingo-Almenara et al. 2019).

This series can be described thus: gradient 5% acetonitrile 3 min, to 50% in 2 min, to 85% in 15 min, held 3 min, 100 µL/min. The settings on record: column: Zorbax Extend-C18 2.1 x 50 mm; eluents: water / acetonitrile, 0.1% formic acid. In outline: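 Over 3 months, pure standards in mixtures of ~100 molecules were run by HPLC coupled to a quadrupole time-of-flight mass spectrometer in positive and negative ionization mode. The column was a Zorbax Extend-C18 (2.1 × 50 mm, 1.8 μm) at 100 μL/min, eluted with water and acetonitrile each holding 0.1% formic acid, with 40 μL dead and 900 μL dwell volumes. Retention time was determined from adduct peaks chosen by software and checked manually.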
The compound `CCN1c2cc(Cl)ccc2C(=O)NC12CCN(C(=O)NCc1ccccc1)CC2` returned an RP-LC retention time of 757 s. The figure for `CCN(CCCNC(=O)CCc1nnc2ccc(-c3ccccc3)nn12)c1ccccc1` is 654 s. In the case of `Cc1nc(Cn2cccc2C(=O)Nc2cccc(Cl)c2)no1`, the RP-LC retention time is 911 s. With `COc1ccc(-n2ncc3c(=O)n(Cc4nc(-c5ccccc5)no4)cnc32)cc1` the figure was 961 s. With `O=C(Nc1ccc(N2CCOCC2)cc1)C1CCCN(c2nnc3ccccn23)C1` (stereo not drawn) the figure was 600 s; with `O=C(NCC1CCN(S(=O)(=O)C2CC2)CC1)c1cnc2ccccc2n1`, 704 s; with `COc1ccc(-c2cn3c(CCC(=O)NCc4ccco4)csc3n2)cc1`, 637 s. With `CS(=O)(=O)N(C1CCOCC1)C1CN(C(=O)c2n[nH]c3ccccc23)C1` the figure was 663 s.

With `O=C(CCc1ccc2cc[nH]c2c1)N1CCN(c2ccc(Cl)cc2)CC1`, the RP-LC retention time turned out to be 996 s.

On to `O=C(c1ccc(OCC2CCCN(C(=O)c3ccc(F)c(F)c3)C2)cc1)N1CCOCC1` (stereo not drawn), for which the RP-LC retention time stood at 801 s.

`O=C(Cn1cnc2nc(N3CCCC(C(=O)NC4CC4)C3)sc2c1=O)NCc1cccs1` (stereo not drawn) came in with an RP-LC retention time of 644 s. The figure for `Cc1ccc(C(=O)N2CCC3(C2)C(=O)N(C)c2ccccc23)cc1F` (stereo not drawn) is 815 s; for `CCN(C(=O)c1cc2c(s1)N(CCOC)CCCC2)C(C)C` it is 1070 s; for `CCc1ccc(OCCS(=O)(=O)Nc2cc(NC(C)=O)ccc2OC)cc1` it is 808 s.

`COc1ccc(NC(=O)Cn2c(=O)n(-c3ccccc3)c(=O)c3c2cc(C)n3C)c(OC)c1` registered an RP-LC retention time of 791 s. The figure for `Cn1ncc2c3ccccc3n(CC(=O)N3CCN(c4ncccn4)CC3)c2c1=O` is 700 s; for `CCc1noc([C@@H]2CC(F)(F)CN2C(=O)c2cocn2)n1` it is 733 s. The figure for `Cc1c(C(=O)C(=O)N2CCc3ccccc3C2)c2ccccc2n1C` is 913 s; for `CCC(=O)N1CCc2sc(C(=O)N3CCN(c4ccccn4)CC3)cc2C1` it is 582 s. In turn, `COc1ccc(N2CCN(C(=O)c3ccc(=O)n(CCN4CCOCC4)c3)CC2)cc1` came in with an RP-LC retention time of 578 s. With `COc1ccc(CNC(=O)C2CCCN(c3ccc(=O)n(-c4cccc(Cl)c4)n3)C2)c(OC)c1` (stereo not drawn) the figure was 876 s.

Regarding `COCc1nc(C2CCN(C(=O)C3CCC3)C2)no1` (stereo not drawn), the RP-LC retention time was found to be 672 s. With `CC(C)CCNC(=O)C1(C)Cn2nc(C(=O)NCc3ccc(N(C)C)cc3)cc2C(=O)N1C` (stereo not drawn) the figure was 619 s.

For `CCOc1ccccc1NC(=O)C(=O)NCc1cc(C)oc1C`, the RP-LC retention time was 697 s. Consider `Cc1ccc(-c2csc(Cc3nc(-c4ccc(C)cc4)no3)n2)cc1`, for which the RP-LC retention time was found to be 1320 s.

Turning to `CC(C)NC(=O)c1ccc(OCC2CCCN(C(=O)c3ccccc3F)C2)cc1` (stereo not drawn), the RP-LC retention time amounted to 830 s. With `Cc1c(C(=O)N2CCOCC2)cnn1-c1ccc(-c2nc(C3CC3)no2)cn1` the figure was 778 s; with `Cc1ccc(NC(=O)C2CCCN2S(=O)(=O)c2cc3c(cc2Cl)NC(=O)CO3)cc1` (stereo not drawn), 800 s.

Turning to `O=C(CSc1nc2ccsc2c(=O)n1-c1ccc(F)cc1)Nc1ncn[nH]1`, the RP-LC retention time came out at 667 s. With `CCCc1ccc(S(=O)(=O)N2CCC(n3c(-c4ccco4)nc4cccnc43)C2)cc1` (stereo not drawn) the figure was 1010 s. The figure for `O=C(NCc1csc(C2CCCN(C(=O)C3CC3)C2)n1)C1CCC1` (stereo not drawn) is 667 s.

Turning to `CN1C(=O)c2cccc3c(C(=O)c4ccccc4)ccc(c23)C1=O`, the RP-LC retention time came out at 921 s. The figure for `O=C(Cn1c(C(F)(F)F)nc2cc3c(cc21)OCCO3)NCC1CCCO1` (stereo not drawn) is 693 s.
